The values below come from EP0932387B1 (UNILEVER PLC, priority 1996, dated 1998).

Common to all, as to type: cell-based
The test system of test [1] is Human keratinocytes. Description: Transglutaminase Assay (TGase I ELISA, Example 1 procedure), normalized to DNA; keratinocyte differentiation. The following applies: 2.5 x 10^-7M, 2.5 x 10^-8M and 2.5x10^-9M, vs ethanol control. The procedure: Human keratinocytes, isolated from neonatal foreskin by trypsin treatment were grown in Dulbecco Modification Eagle (DME) Hams F12 (1:1) medium/10% fetal calf serum in the presence of irradiated 3T3 mouse fibroblasts for establishing dividing keratinocyte colonies. Cells were grown under the above condition until their second passage and kept frozen for future use. Frozen second passage keratinocytes were thawed and plated into the above medium and grown for five days before they were switched to a serum-free MCDB 153-based medium keratinocyte growth medium (KGM) from Clonetics Corporation, San Diego, CA, containing 0.15 mM Ca, or keratinocyte serum-free media (KSFM) from GIBCO containing 0.09 mM Ca). On day 7, when the cells were 80-90% confluent, they were trypsinized and plated in the serum-free medium for the various experiments. […]
Keratinocytes (cultured as described above) were plated in 96 well plates at a density of 3,000 cells per well in 200 µl media. […] The absorbance of samples was read at 492nm in the plate reader. […] TGase levels were determined by subtracting background from the readings from each treatment and determining mean ± s.d. for the replicates exposed to both antibodies.
The level of TGase I detected after treatment of the cells could be influenced by cell number, i.e., the greater the number of cells the greater the level of TGase-1 detected. […]

Test [2] has as its system Human keratinocytes. Description: Transglutaminase Assay (TGase I ELISA, procedure for other Examples), normalized to DNA; keratinocyte differentiation. The procedure: (§1) Human keratinocytes, isolated from neonatal foreskin by trypsin treatment were grown in Dulbecco Modification Eagle (DME) Hams F12 (1:1) medium/10% fetal calf serum in the presence of irradiated 3T3 mouse fibroblasts for establishing dividing keratinocyte colonies. Cells were grown under the above condition until their second passage and kept frozen for future use. Frozen second passage keratinocytes were thawed and plated into the above medium and grown for five days before they were switched to a serum-free MCDB 153-based medium keratinocyte growth medium (KGM) from Clonetics Corporation, San Diego, CA, containing 0.15 mM Ca, or keratinocyte serum-free media (KSFM) from GIBCO containing 0.09 mM Ca). On day 7, when the cells were 80-90% confluent, they were trypsinized and plated in the serum-free medium for the various experiments.
During the process of terminal differentiation in the epidermis, a 15nm thick layer of protein, known as the cornified envelope (CE) is formed on the inner surface of the cell periphery. The CE is composed of numerous distinct proteins which have been cross-linked together by the formation of N^ε-(γ-glutamyl) lysine isodipeptide bonds catalyzed by the action of at least two different transglutaminases (TGases) expressed in the epidermis. Transglutaminase I (TGase I) is expressed in abundance in the differentiated layers of the epidermis, especially the granular layer, but is absent in the undifferentiated basal epidermis. Thus TGase I is a useful marker of epidermal keratinocyte differentiation with high TGase I levels indicating a more differentiated state. An ELISA based TGase I assay, using a TGase I antibody, was used to assess the state of differentiation of the cultured keratinocytes in the examples that follow.
Keratinocytes (cultured as described above) were plated in 96 well plates at a density of 3,000 cells per well in 200µl of cell culture media. After incubation for four days, the media was changed to media containing test compounds (six replicates per test). The cells were cultured for a further 72 hours after which time the media was aspirated and the plates stored at -70°C. After the plates were removed from the freezer, the cells were further freezed fractured by freezing and thawing and then washed 3x with PBS. The cells were incubated for one hour at room temperature (R/T) with TBS/5% BSA buffer. Cells were then incubated with 100µl of monoclonal anti-human transglutaminase (IgG) mouse antibody (primary antibody) obtained from Biomedical Technologies Inc. diluted 1:2000 in TBS/1% BSA buffer for two hours at 37°C, and then rinsed six times with wash buffer (TBS/1% BSA/0.05% Tween-20). Cells were next incubated with 100µl of Fab fragment, peroxidase conjugated anti-mouse IgG antibody (secondary antibody) from Amersham diluted 1:4,000 in wash buffer for two hours at 37°C and then rinsed three times with wash buffer and three times with PBS. Cells were incubated with substrate solution (4mg o-phenylene diamine and 3.3µl 30% H2O2 in 10mL 0.1M citrate buffer, pH 5.0) for five minutes at R/T and in darkness (under aluminum foil). The reaction was stopped by the addition of 50µl 4N H2SO4. The absorbance of samples was read at 492nm in the plate reader. Out of the six replicates, four were treated with both antibodies, two were treated only with the secondary antibody (i.e., to determine the background binding of the enzyme conjugated antibody). Transglutaminase I levels were determined by subtracted background from the readings from each treatment and determining the mean ± s.d. for the replicates exposed to both antibodies.
The level of TGase I detected after treatment of the cells could be influenced by cell number, i.e., the greater the number of cells the greater the level of TGase-1 detected. The level of Tgase I was normalized to DNA content of the cells in the same well thus eliminating variation due to differences in cell number. […]
In general terms: In an ELISA, binding on a coated surface is turned into a signal by an enzyme label.

Test [3] relates to Human keratinocytes. Description: 3H-Thymidine incorporation, keratinocyte proliferation. The following applies: 250 nM. The method, then: as §1
The incorporation of ^3H-thymidine by cultured keratinocytes was used as an assay of keratinocyte proliferation. Thymidine is one of four deoxynucleosides which are the monomeric units of DNA, the universal library of genetic information in the animal kingdom. Prior to cell division of a somatic cell such as a keratinocyte, the complete genome of the cell undergoing cell division is replicated. This involves large scale DNA synthesis by the cell and enables both daughter cells to receive identical copies of the genetic material. When ^3H-thymidine is included in the culture media of keratinocytes which are synthesizing DNA in preparation for cell division then the labelled nucleoside is incorporated into the newly synthesized DNA. The extent of incorporation of ^3H-thymidine into a population of cells is proportional to the rate of DNA synthesis by this population of cells and therefore an indication of their cellular proliferation.
Keratinocytes (that were cultured as described above) were plated in 24 well plates at a density of 20,000 cells per well in 1 ml media. After incubation for four days or until the cells were 60-70% confluent, the media was changed. Test compounds were added (in triplicate) to the wells 24 hours after the media change, and four hours later 1µCi ^3H-Thymidine in 50 µl media was added per well. Cells were incubated for a further 24 hours. Media was removed from the cells, 10% ice cold trichloroacetic acid (TCA) added and plates were incubated on ice for 30 minutes. Cells were washed five times with 5% TCA and allowed to dissolve in 500 µl 0.1M NaOH for at least one hour (usually overnight). The preparations were neutralized with 0.1M HCl; 50 µl of the cell preparation was used to determine total protein content. Disintegrations per minute (DPM) from ^3H labelling of DNA was determined by liquid scintillation counting of 900µl of the cell preparation. Thymidine incorporation results were expressed as DPM/µg protein.
(Uptake of a labelled nucleoside into DNA is a usual measure of proliferation.)

Structures are written as SMILES.

`CC1=C(/C=C/C(C)=C/C=C/C(C)=C/CO)C(C)(C)CCC1` [retinol]: the “Transglutaminase levels normalized to DNA content of the cells” value in test [1] is recorded as “decrease in transglutaminase level was dose dependent”. In addition, the “% Control” value in test [2] (Table 7, experiment 1, 0.001 mM, transglutaminase normalized to DNA) worked out at 67%; in test [3] (Table 9A, Experiment #1), 108%; in test [3] (Table 9B, Experiment #2), 107%. For the same compound, the “TGase/ DNA (% control)” value in test [2] (Table 11, 2.5x10^-9M, 72 hour treatment) is on record as 91%; in test [2] (Table 11, 2.5x10^-9M, 72 hour treatment, listed as Retinol) it was 92%; in test [2] (Table 13, 2.5x10^-7M, 72 hour treatment), 90%. The “mean TGase/ DNA x10^5 ± s.d” value in test [2] (Table 11, 2.5x10^-9M, 72 hour treatment, n = 3) is reported as 48.31 ± 5.31. In addition, the “DPM/Microgram Protein mean” value in test [3] (Table 9A, Experiment #1) is 2082 DPM/Microgram Protein; in test [3] (Table 9B, Experiment #2) it was 974 DPM/Microgram Protein.
